Drawing on PubChem BioAssay AID1745844 (Carcinogenic Potency Database (CPDB), 2022), this text covers carcinogen call and TD50 for seven compounds.

The structures appear in SMILES notation. Activity calls are given as the source filed them. The rule behind the calls is not given here.

This data set has as its system rodent lifetime carcinogenesis bioassay, tumor incidence TD50. As to the kind of experiment: chronic cancer bioassays in animals – CPDB, compiled studies (AID 1745844).

A word on the TD50: it is the 50% point of the dose-response relation for the toxic effect studied. Take `OCl`: the carcinogen call (mouse, strain B6C3F1, females, in drinking water, site: any site (literature study), lesion: several types, types named in the paper, dosed 103 weeks, study length 106 weeks) was “negative (inactive)”; the carcinogen call (mouse, strain B6C3F1, females, in drinking water, site: liver, lesion: hepatocellular carcinoma, dosed 103 weeks, study length 106 weeks) was “negative (inactive)”; the carcinogen call (mouse, strain B6C3F1, females, in drinking water, site: liver, lesion: several types, types named in the paper, dosed 103 weeks, study length 106 weeks) was “negative (inactive)”; the carcinogen call (mouse, strain B6C3F1, males, in drinking water, site: liver, lesion: hepatocellular carcinoma, dosed 103 weeks, study length 106 weeks) is “negative (inactive)”; the carcinogen call (rat, strain F344/DuCrj, males, in drinking water, site: liver, lesion: cholangioma, dosed 104 weeks, study length 112 weeks) was “negative (inactive)”; the carcinogen call (rat, strain F344/DuCrj, males, in drinking water, site: liver, lesion: fibrous histiocytoma, dosed 104 weeks, study length 112 weeks) is “negative (inactive)”. The carcinogen call (rat, strain F344/DuCrj, males, in drinking water, site: liver, lesion: several types, types named in the paper, dosed 104 weeks, study length 112 weeks) is “negative (inactive)”. The TD50 reads like this: (mouse, strain B6C3F1, females, in drinking water, site: lung, lesion: several types, types named in the paper, dosed 103 weeks, study length 106 weeks) 22900 mg/kg/day (inactive); (mouse, strain B6C3F1, males, in drinking water, site: any site (literature study), lesion: several types, types named in the paper, dosed 103 weeks, study length 106 weeks) 350 mg/kg/day (inactive); (mouse, strain B6C3F1, males, in drinking water, site: liver, lesion: several types, types named in the paper, dosed 103 weeks, study length 106 weeks) 876 mg/kg/day (inactive); (mouse, strain B6C3F1, males, in drinking water, site: lung, lesion: several types, types named in the paper, dosed 103 weeks, study length 106 weeks) 2040 mg/kg/day (inactive); (rat, strain F344/DuCrj, females, in drinking water, site: liver, lesion: several types, types named in the paper, dosed 104 weeks, study length 112 weeks) 6300 mg/kg/day (inactive).

Regarding `CCN(CC)c1ccc2c(-c3ccc(S(=O)(=O)O)cc3S(=O)(=O)[O-])c3ccc(=[N+](CC)CC)cc-3oc2c1`, the TD50 runs as follows: (rat, strain F344/DuCrj, females, in feed, site: any site (literature study), lesion: several types, types named in the paper, dosed 106 weeks, study length 106 weeks) 4100 mg/kg/day (inactive); (rat, strain F344/DuCrj, males, in feed, site: any site (literature study), lesion: several types, types named in the paper, dosed 106 weeks, study length 106 weeks) 2350 mg/kg/day (inactive). In addition, the carcinogen call reads like this: (rat, strain F344/DuCrj, females, in feed, site: liver, lesion: one or several types, types not named, dosed 106 weeks, study length 106 weeks) “negative (inactive)”; (rat, strain F344/DuCrj, males, in feed, site: liver, lesion: neoplastic nodule, dosed 106 weeks, study length 106 weeks) “negative (inactive)”.

Regarding `CCNNC(=O)[C@@H]1[C@H](c2cc(OC)c(OC)c(OC)c2)c2cc3c(cc2[C@H](O)[C@H]1CO)OCO3`, the carcinogen call (rat, strain BR 46, males, i.v., site: any site (literature study), lesion: several types, types named in the paper, dosed 52 weeks, study length 104 weeks) was “negative (inactive)”.

As to `Nc1cc(S(=O)(=O)O)cc2cc(S(=O)(=O)O)c(N=Nc3ccc(-c4ccc(N=Nc5c(S(=O)(=O)O)cc6cc(S(=O)(=O)O)cc(N)c6c5O)cc4)cc3)c(O)c12`, the TD50 is, setting by setting: (rat, strain Fischer 344, females, in feed, site: any site (literature study), lesion: several types, types named in the paper, dosed 13 weeks, study length 13 weeks) 3.21 mg/kg/day; (rat, strain Fischer 344, females, in feed, site: liver, lesion: hepatocellular adenoma + hepatocellular carcinoma + neoplastic nodule, dosed 13 weeks, study length 13 weeks) 3.21 mg/kg/day; (rat, strain Fischer 344, females, in feed, site: liver, lesion: hepatocellular carcinoma + neoplastic nodule, dosed 13 weeks, study length 13 weeks) 3.21 mg/kg/day; (rat, strain Fischer 344, females, in feed, site: liver, lesion: hepatocellular carcinoma, dosed 13 weeks, study length 13 weeks) 5.97 mg/kg/day; (rat, strain Fischer 344, males, in feed, site: any site (literature study), lesion: several types, types named in the paper, dosed 13 weeks, study length 13 weeks) 1.18 mg/kg/day; (rat, strain Fischer 344, males, in feed, site: liver, lesion: hepatocellular adenoma + hepatocellular carcinoma + neoplastic nodule, dosed 13 weeks, study length 13 weeks) 1.18 mg/kg/day. In addition, for the setting “rat, strain Fischer 344, males, in feed, site: liver, lesion: hepatocellular carcinoma + neoplastic nodule, dosed 13 weeks, study length 13 weeks”, the TD50 was 1.18 mg/kg/day.

As for `COC(=O)C1=C(C)NC(C)=C(C(=O)OCC(C)(C)CN(C)Cc2ccccc2)C1c1cc([N+](=O)[O-])ccc1F` (stereo unspecified), the carcinogen call by setting is: (rat, strain Fischer 344, females, in feed, site: liver, lesion: one or several types, types not named, dosed 104 weeks, study length 104 weeks) “negative (inactive)”; (rat, strain Fischer 344, males, in feed, site: all sites, lesion: mononuclear-cell leukemia, dosed 104 weeks, study length 104 weeks) “negative (inactive)”; (rat, strain Fischer 344, males, in feed, site: liver, lesion: hepatocellular adenoma, dosed 104 weeks, study length 104 weeks) “negative (inactive)”.

For the compound `NC(=O)c1ccncc1`, the TD50 (mouse, strain Swiss albino, females, in drinking water, site: liver, lesion: hepatoma, dosed 121 weeks, study length 121 weeks) is 21300 mg/kg/day (inactive). Moreover, the carcinogen call is, setting by setting: (mouse, strain Swiss albino, females, in drinking water, site: lung, lesion: several types, types named in the paper, dosed 121 weeks, study length 121 weeks) “negative (inactive)”; (mouse, strain Swiss albino, males, in drinking water, site: lung, lesion: several types, types named in the paper, dosed 117 weeks, study length 117 weeks) “negative (inactive)”.

For `Cc1ccc(C)c(N)c1`, the TD50 by setting is: (mouse, strain CD-1 HaM/ICR, females, in feed, site: any site (literature study), lesion: several types, types named in the paper, dosed 68 weeks, study length 94 weeks) 475 mg/kg/day; (mouse, strain CD-1 HaM/ICR, females, in feed, site: liver, lesion: hepatoma, dosed 68 weeks, study length 94 weeks) 552 mg/kg/day; (mouse, strain CD-1 HaM/ICR, females, in feed, site: liver, lesion: several types, types named in the paper, dosed 68 weeks, study length 94 weeks) 552 mg/kg/day; (mouse, strain CD-1 HaM/ICR, females, in feed, site: lung, lesion: several types, types named in the paper, dosed 68 weeks, study length 94 weeks) 1290 mg/kg/day (inactive); (mouse, strain CD-1 HaM/ICR, males, in feed, site: all sites, lesion: all vascular tumors, dosed 68 weeks, study length 94 weeks) 723 mg/kg/day; (mouse, strain CD-1 HaM/ICR, males, in feed, site: any site (literature study), lesion: several types, types named in the paper, dosed 68 weeks, study length 94 weeks) 321 mg/kg/day. Further, the TD50 runs as follows: (mouse, strain CD-1 HaM/ICR, males, in feed, site: liver, lesion: several types, types named in the paper, dosed 68 weeks, study length 94 weeks) 805 mg/kg/day; (mouse, strain CD-1 HaM/ICR, males, in feed, site: lung, lesion: several types, types named in the paper, dosed 68 weeks, study length 94 weeks) 765 mg/kg/day (inactive); (rat, strain Charles River CD (Sprague-Dawley), males, in feed, site: any site (literature study), lesion: several types, types named in the paper, dosed 77 weeks, study length 103 weeks) 67.2 mg/kg/day; (rat, strain Charles River CD (Sprague-Dawley), males, in feed, site: liver, lesion: several types, types named in the paper, dosed 77 weeks, study length 103 weeks) 3260 mg/kg/day (inactive); (rat, strain Charles River CD (Sprague-Dawley), males, in feed, site: subcutaneous tissue, lesion: several types, types named in the paper, dosed 77 weeks, study length 103 weeks) 152 mg/kg/day.
